Experimental data from patent publication US12509460B2 (Skyhawk Therapeutics, Inc., priority 2019, dated 2025).
pEC50: −log10 of the molar value. Read-outs that look alike come from different tables or passages of the source.

Experiments:
MDR1 = experiment: Blood-brain-barrier (BBB) penetration potential via MDCK-MDR1 permeability assay; settings: dog, MDCK-MDR1, pH 7.4, MDCK-MDR1: Efflux
Experimental: (§1) Example A13: Assessment of Blood-Brain-Barrier (BBB) Penetration Potential Via an MDCK-MDR1 Permeability Assay
(§2) The permeability of compounds is assessed for BBB penetration potential by use of an MDCK-MDR1 assay (Catalog EA203) performed by Absorption Systems, Exton PA.
(§3) Experimental Procedure: MDR1-MDCK cell monolayers are grown to confluence on collagen-coated, microporous membranes in 12-well assay plates. The permeability assay buffer is Hanks' balanced salt solution containing 10 mM HEPES and 15 mM glucose at a pH of 7.4. The buffer in the receiver chamber also contained 1% bovine serum albumin. The dosing solution concentration is 5 μM of test article in the assay buffer. Cell monolayers are dosed on the apical side (A-to-B) or basolateral side (B-to-A) and incubated at 37° C. with 5% CO2 in a humidified incubator. Samples are taken from the donor and receiver chambers at 120 minutes. Each determination is performed in duplicate. The flux of lucifer yellow is also measured post-experimentally for each monolayer to ensure no damage is inflicted to the cell monolayers during the flux period. All samples are assayed by LC-MS/MS using electrospray ionization.
(§4) The apparent permeability (Papp) and percent recovery are calculated as follows:
(§5) Analytical Method: Liquid Chromatography. Column: Waters ACQUITY UPLC BEH Phenyl 30 ×2.1 mm, 1.7 μm; M.P. Buffer. 25 mM ammonium formate buffer, pH 3.5; Aqueous Reservoir (A): 90% water, 10% buffer, Organic Reservoir (B): 90% acetonitrile, 10% buffer, Flow Rate: 0.7 mL/minute; Gradient Program:
(§6) • Total Run Time: 1.00 minute • Autosampler. 2 μL injection volume • Wash1: water/methanol/2-propanol:1/1/1; with 0.2% formic acid • Wash2: 0.1% formic acid in water • Brain Penetration • Potential Classification: A-B Papp≥3.0 and Efflux Ratio <3.0: High • A-B Papp≥3.0 and 10≥Efflux Ratio >3.0: Moderate • A-B Papp≥3.0 and Efflux Ratio≥10: Low • A-B Papp<3.0: Low

[1] = tested on: MDR1-MDCK cell monolayers; experiment: as above
Experimental: as §1, §2, §3, §4, §5, §6

MDR1 (P-gp) = experiment: as above; settings: dog; for Papp A→B at 120 min, 5 μM: MDCK-MDR1, pH 7.4, MDCK-MDR1: Papp A-B; for Papp B→A at 120 min, 5 μM: MDCK-MDR1, pH 7.4, MDCK-MDR1: Papp B-A
Experimental: as §1, §2, §3, §4, §5, §6

[2] = tested on: SMN protein in spinal muscular atrophy (SMA) patient fibroblasts (GM03813, Coriell); experiment: SMN protein assay, Mesoscale Discovery (MSD); format: cell-based, human; settings: read-out: SMN2 protein EC50
Experimental: Example A12: SMN Protein Assay
Compounds are tested on spinal muscular atrophy (SMA) patient fibroblasts (GM03813, Coriell) at doses ranging from 2.5 μM to 0.6 nM. 7000 cells/well are seeded in 96-well plates. Compounds are incubated for 48 hours and the cells were lysed with 100 μL of lysis buffer. 20 μL of lysate is used for SMN protein measurement by Mesoscale Discovery (MSD) assay developed by PharmOptima (Michigan). A standard curve prepared with SMN protein ranging from 1 μg/ml to 19.5 pg/ml is used in each MSD plate to calculate the absolute SMN protein amount in each sample.

[3] = tested on: mHTT protein in GM04724 (CAG 70/20) Huntington's disease patient lymphoblast cells; experiment: mHTT protein assay, 2B7-MW1 assay via Mesoscale Discovery (MSD); format: cell-based, human
Experimental: Example A10: mHTT Protein Assay
Compounds are tested on GM04724 (CAG 70/20) Huntington's disease patient lymphoblast cells at doses ranging from 10 μM to 0.6 nM. 4,500 cells/well are seeded in 384 well plates. One plate replica is carried out for parallel viability testing by CellTiter Glo (CTG). Compounds are incubated for 48 hours. mHTT protein levels are assessed by the 2B7-MW1 assay via Mesoscale Discovery (MSD) as previously reported (Macdonald et al., 2014). The antibody pair is comprised of previously characterized monoclonals (2B7 and MW1) interrogating two regions for HTT conformation and biological properties: the N, 17 domain and the polyQ domain (Baldo et al., 2012; Ko et., 2001). 2B7-MW1 is […] specific levels of HTT at the time of treatment. 2B7-MW1 is dependent on polyQ expansion (e.g., the higher the expansion the higher the signal) and on mHTT size (e.g., a similar polyQ will give higher signal with smaller HTT size). The viability readout is carried out by CTG according to the manufacturer's instructions.

[4] = tested on: SMN FL and SMN Δ7 in spinal muscular atrophy (SMA) patient fibroblasts (GM03813, Coriell); experiment: Quantitative splicing assay (SMN), qPCR; format: cell-based, human; settings: Homo sapiens, Fibroblast, 24 h, read-out: SMN2 Splicing FL EC50
Experimental: Spinal muscular atrophy (SMA) patient fibroblasts (GM03813, Coriell) are plated in 96-well plates at 50,000 cells/well. […] Treated cells are lysed and cDNA synthesized using the Fast Advanced Cells-to-Ct kit (Thermofisher A35378) according to the manufacturer's instructions. 2 μL of each cDNA are used in qPCR reactions. […] Reactions are run in a Quant Studio 6 qPCR instrument with default settings.

[5] = SMA patient fibroblasts GM03813, 48 hours, MSD
[6] = GM04724 Huntington's disease patient lymphoblasts
[7] = SMA patient fibroblasts GM03813, 24 h, qPCR
[8] = SMA patient fibroblasts (GM03813), 48 hours
[9] = GM04724 (CAG 70/20) Huntington's disease patient lymphoblasts
[10] = SMA patient fibroblasts (GM03813)

SMILES	efflux ratio at 120 min, 5 μM (MDR1; efflux ratio)	MDCK-MDR1: % Recov A-B ([1]; A-B direction)	MDCK-MDR1: % Recov B-A ([1]; B-A direction)	Papp A→B at 120 min, 5 μM (MDR1 (P-gp); A-B direction)	Papp B→A at 120 min, 5 μM (MDR1 (P-gp); B-A direction)	pEC50 [2, 5]	pEC50 [3, 6]	pEC50 [4, 7]	efflux ratio at 120 min, 5 μM (MDR1)	MDCK-MDR1: % Recov A-B ([1]; A-B)	MDCK-MDR1: % Recov B-A ([1]; B-A)	Papp A→B at 120 min, 5 μM (MDR1 (P-gp); A-B)	Papp B→A at 120 min, 5 μM (MDR1 (P-gp); B-A)	pEC50 [2, 8]	pEC50 [3, 9]	pEC50 [4, 10]	efflux ratio at 120 min, 5 μM (MDR1 (P-gp); MDCK-MDR1, pH 7.4, MDCK-MDR1: Efflux)
CN(C)C(=O)c1cc2cc(O)c(-c3ccc(N(C)[C@H]4C[C@@H]5CC[C@@H](N5)[C@H]4F)nn3)cc2o1 [Compound 9B, 6-(6-(((1R,2R,3S,5S)-2-fluoro-8-azabicyclo[3.2.1]octan-3-yl)(methyl)amino)pyridazin-3-yl)-5-hydroxy-N,N-dimethylbenzofuran-2-carboxamide]	78	88%	100%	0.62 ×10⁻⁶ cm/s	48.2 ×10⁻⁶ cm/s	7.30 to 7.80	6.30 to 7.00	6.30 to 7.00									
CN(c1ccc(-c2cc3ncn(CC(F)(F)F)c(=O)c3cc2O)nn1)[C@@H]1C[C@H]2CC[C@H](N2)[C@@H]1F [Compound 81A, 7-(6-(((1S,2S,3R,5R)-2-fluoro-8-azabicyclo[3.2.1]octan-3-yl)(methyl)amino)pyridazin-3-yl)-6-hydroxy-3-(2,2,2-trifluoroethyl)quinazolin-4(3H)-one]	139	100%	94%	0.37 ×10⁻⁶ cm/s	51 ×10⁻⁶ cm/s	7.30 to 7.80	6.30 to 7.00	7.00 to 7.29									
CN(c1ccc(-c2cc3cccnc3cc2O)nn1)[C@@H]1C[C@H]2CC[C@H](N2)[C@@H]1F [Compound 74A, 6-(6-(((1S,2S,3R,5R)-2-fluoro-8-azabicyclo[3.2.1]octan-3-yl)(methyl)amino)pyridazin-3-yl)quinolin-7-ol]	14	69%	81%	3.13 ×10⁻⁶ cm/s	44.5 ×10⁻⁶ cm/s	7.30 to 7.80	7.30 to 7.80	6.30 to 7.00									
CN(c1ccc(-c2ccc(-n3cnc(C#N)c3)cc2O)nn1)[C@H]1C[C@@H]2CCC[C@@H](N2)[C@H]1F [Compound 63B, 1-(4-(6-(((1R,2R,3S,5S)-2-fluoro-9-azabicyclo[3.3.1]nonan-3-yl)(methyl)amino)pyridazin-3-yl)-3-hydroxyphenyl)-1H-imidazole-4-carbonitrile]	19	72%	96%	2.31 ×10⁻⁶ cm/s	44.9 ×10⁻⁶ cm/s	7.82 to 11.00	7.30 to 7.80	7.30 to 7.80									
Cc1cc(=O)c2cc(O)c(-c3ccc(N(C)[C@H]4C[C@@H]5CC[C@H]([C@H]4F)N5C)nn3)cc2o1 [Compound 99B, 7-(6-(((1R,2R,3S,5S)-2-fluoro-8-methyl-8-azabicyclo[3.2.1]octan-3-yl)(methyl)amino)pyridazin-3-yl)-6-hydroxy-2-methyl-4H-chromen-4-one]									21	103%	112%	2.74 ×10⁻⁶ cm/s	56.7 ×10⁻⁶ cm/s	7.82 to 11.00	6.30 to 7.00	7.00 to 7.29	
CN(c1ccc(-c2cc3ccncc3cc2O)nn1)[C@H]1C[C@@H]2CC(F)(F)[C@H](C1)N2 [Compound 125B, 6-(6-(((1R,3S,5S)-6,6-difluoro-8-azabicyclo[3.2.1]octan-3-yl)(methyl)amino)pyridazin-3-yl)isoquinolin-7-ol]										67%	81%	15.6 ×10⁻⁶ cm/s	53.2 ×10⁻⁶ cm/s	7.30 to 7.80	7.00 to 7.29	7.30 to 7.80	3
